Legend:
[1] = In vitro transfection of cells with eGFP-mRNA lipid nanoparticle (LNP preparation), fluorescence imaging and flow cytometry; format: cell-based, mouse; conditions: mouse, dc2.4 cells, 200 ng of mRNA per well, after 24 hours; read-out: Cell viability, %
Description: (§1) This example used mouse bone marrow-derived dendritic cells DC2.4 (purchased from Millipore) as the validation cell line for a lipid nanoparticle transfection experiment. DC2.4 cells adhered to the wall for growth. All operational steps of cell culture strictly followed the prescribed procedures, using sterile reagents for aseptic operations under a sterile workbench. The main operational steps involved were as follows: • 1) Cell recovery: the preserved cell cryopreservation solution was removed from the -80 °C freezer and immediately placed in a 37 °C water bath for rapid and continuous shaking, allowing it to completely melt within one minute. Fresh culture medium was added to a 15 mL centrifuge tube in advance, and the cell fluid was added to the centrifuge tube in a biosafety cabinet. A centrifuge tube of the same mass was taken, placed symmetrically in the centrifuge, and centrifuged at low speed for 5 minutes at 1200 rpm. After centrifugation, the upper clear liquid was removed, and an appropriate amount of culture medium was slowly added along the tube wall. After the cells were gently blown and dispersed evenly, the cell suspension was drawn and added to the prepared culture bottle. The state and distribution of cells in the early stage of recovery were observed under a microscope. The culture bottle was incubated in a 5% CO2 incubator at 37 °C, and the recovery time was recorded. • 2) Cell passaging: Under a microscope, if the cell density in the field of view reached 80%-90%, cells could be passaged and cultured. Adherent cells required trypsin digestion. In order to avoid residual serum in the culture medium reducing trypsin activity, the original culture medium was removed, and DPBS solution was added to wash once. After suctioning out the DPBS solution, trypsin was added to degrade the protein at the intercellular junction, thereby separating the cells and facilitating further cultivation. The mixture was gently shaken well and placed into the incubator for digestion for 2-3 minutes. After digestion was complete, an appropriate amount of culture medium was immediately added to the original culture dish to terminate digestion. Finally, a pipette was used to carefully blow off the cells and blow them until they were evenly dispersed, and then the cells were inoculated and subcultured in a certain proportion according to experimental requirements.
(§2) Transfection of DC2.4 cells • 1) DC2.4 cell recovery: the frozen DC2.4 cells were taken out from the -80 °C refrigerator and immediately put into a 37 °C water bath for rapid thawing. After melting, they were added to the preheated culture medium, and centrifuged at 1200 rpm for 5 minutes. The supernatant was discarded, and an appropriate amount of DMEM medium containing 10% FBS was added to resuspend the recovered DC2.4 cells, which were placed in a 37 °C, 5% CO2 incubator for activation culture. • 2) According to experimental requirements, DC2.4 cells were transfected into 24 well plates one day in advance. By counting cells, the number and viability of cells were recorded, and a cell suspension with 2 × 10^5 cells per well were taken. Then, a certain volume of DMEM medium containing 10% FBS was added and mixed evenly, wherein 1 mL was added per well for subsequent transfection experiments. • 3) After 24 hours, the culture medium was gently aspirated with a pipette 30 minutes in advance, and each well was washed with 1 mL of DPBS and aspirated. […] The mixture was placed in a 37 °C, 5% CO2 incubator for activation cultivation. • 6) After 24 hours, cell viability (%), eGFP positivity rate (%), and mean fluorescence intensity data were obtained through cell fluorescence imaging and flow cytometry.

DC2.4 cells = assay: as above; format: cell-based, mouse; conditions: eGFP positivity rate, DC2.4 cells, 200 ng of mRNA per well, after 24 hours
Description: as §1, §2

[2] = Size and polydispersity index (PDI) of the lipid nanoparticle by dynamic light scattering; format: physicochemical; conditions: LNP encapsulating eGFP mRNA, ionizable lipid/DOPE/cholesterol/DMG-PEG2000 50/10/48.25/1.25 mol%, N/P 12; for Particle size: in nm (unit assumed)
Experimental: (§3) The ionizable lipid compound and positive control 1 from Example I were dissolved in ethanol at a molar ratio of 50:10:48.25:1.25 with DOPE, cholesterol, and DMG-PEG2000 (all purchased from A.V.T (Shanghai) Pharmaceutical Co., Ltd.) to prepare an ethanol lipid solution. The enhanced green fluorescent protein (eGFP) mRNA was diluted in 20 mM citrate buffer (pH=6.1) to obtain an mRNA aqueous solution. By using a microfluidic device (Micro&Nano Biologics Co., Ltd., model: INano ™ L) mix ethanol lipid solution and mRNA aqueous solution in a volume ratio of 1:3 to prepare a lipid nanoparticle with a total lipid to mRNA N/P ratio of 12. The medium was replaced by ultrafiltration, ethanol was removed and volumed with DPBS. Finally, the lipid nanoparticle was filtered through a 0.2 µm sterile filter to obtain an LNP preparation encapsulating eGFP mRNA using ionizable lipid/DOPE/cholesterol/DMG-PEG2000 (50/10/48.25/1.25 mol%), with an mRNA content of 0.002 mg/ml-0.5 mg/mL.
(§4) Using Malvern Zetasizer Nano ZS (Malvern UK), the size and polydispersity index (PDI) of the lipid nanoparticle were determined by dynamic light scattering in 173° backscatter detection mode, and the encapsulation efficiency was measured by Ribogreen method.

[3] = Encapsulation efficiency of the lipid nanoparticle (eGFP mRNA) by Ribogreen method; format: physicochemical; conditions: LNP encapsulating eGFP mRNA, ionizable lipid/DOPE/cholesterol/DMG-PEG2000 50/10/48.25/1.25 mol%, N/P 12
Experimental: as §3, §4

Row | PDI [2] | Encapsulation rate, % [3] [%] | Particle size [2] | Structure (SMILES) | viability at 24 h [1] [%] | Positive rate, % (DC2.4 cells) [%]
1 | 0.13 | 92.30 | – | CCCCCC/C=C\COC(=O)CCCCCCCN(CCO)CCCN(CCCCCCCC(=O)OC/C=C\CCCCCC)CCCCCCCC(=O)OC/C=C\CCCCCC [Example 6, Di((Z)-non-2-en-1-yl)8,8'-((3-((2-hydroxyethyl)(8-(((Z)-non-2-en-1-yl)oxo)-8-oxooctyl)amino)propyl)azanediyl)dioctanoate] | 80.5 | 85.29
2 | 0.09 | 86.64 | – | CC/C=C\C/C=C\CCCOC(=O)CCCCCCCN(CCO)CCCN(CCCCCCCC(=O)OCCC/C=C\C/C=C\CC)CCCCCCCC(=O)OCCC/C=C\C/C=C\CC [Example 7, Di((4Z,7Z)-dec-4,7-dien-1-yl)8,8'-((3-((8-(((4Z,7Z)-dec-4,7-dien-1-yl)oxo)-8-oxooctyl)(2-hydroxyethyl)amino)propyl)azanediyl)dioctanoate] | 76.9 | 75.68
3 | 0.21 | 80.59 | – | CC/C=C\CCCCCOC(=O)CCCCCCCN(CCO)CCCN(CCCCCCCC(=O)OCCCCC/C=C\CC)CCCCCCCC(=O)OCCCCC/C=C\CC [Example 8, Di((Z)-non-6-en-1-yl)8,8'-((3-((2-hydroxyethyl)(8-(((Z)-non-6-en-1-yl)oxo)-8-oxooctyl)amino)propyl)azanediyl)dioctanoate] | 63.2 | 82.12
4 | 0.22 | 78.69 | – | CCCCCCCCCOC(=O)CCCCCCCN(CCO)CCCN(CCCCCCCC(=O)OCCCCCCCCC)CCCCCCCC(=O)OCCCCCCCCC [Example 9, Dinonyl 8,8'-((3-((2-hydroxyethyl)(8-(nonoxy)-8-oxooctyl)amino)propyl)azanediyl)dioctanoate] | 55.6 | 83.84
5 | 0.14 | 89.02 | 90.73 | CC/C=C\COC(=O)CCCCCCCN(CCO)CCCN(CCCCCCCC(=O)OC/C=C\CC)CCCCCCCC(=O)OC/C=C\CC [Example 10, Di((Z)-pent-2-en-1-yl)8,8'-((3-((2-hydroxyethyl)(8-oxo-8-(((Z)-pent-2-en-1-yl)oxo)octyl)amino)propyl)azanediyl)dioctanoate] | 95 | 95.39
6 | 0.21 | 96.34 | – | CCCCCCCCCCCCCOC(=O)CCCCCCCN(CCO)CCCN(CCCCCCCC(=O)OCCCCCCCCCCCCC)CCCCCCCC(=O)OCCCCCCCCCCCCC [Example 13, Ditridecyl 8,8'-((3-((2-hydroxyethyl)(8-oxo-8-(tridecyloxy)octyl)amino)propyl)azanediyl)dioctanoate] | 91.3 | 93.23
7 | 0.21 | 97.23 | 98.45 | CCCCCCCCCCCOC(=O)CCCCCCCCCN(CCO)CCCN(CCCCCCCCCC(=O)OCCCCCCCCCCC)CCCCCCCCCC(=O)OCCCCCCCCCCC [Example 14, Diundecyl 10,10'-((3-((2-hydroxyethyl)(10-oxo-10-(undecyloxy)decyl)amino)propyl)azanediyl)dicaprate] | 97.9 | 95.61
8 | 0.20 | 90.28 | – | CCCCCC/C=C\COC(=O)CCCCCCCCCN(CCO)CCCN(CCCCCCCCCC(=O)OC/C=C\CCCCCC)CCCCCCCCCC(=O)OC/C=C\CCCCCC [Example 15, Di((Z)-non-2-en-1-yl)10,10'-((3-((2-hydroxyethyl)(10-(((Z)-non-2-en-1-yl)oxo)-10-oxodecyl)amino)propyl)azanediyl)dicaprate] | 84.4 | 91.39
9 | 0.18 | 86.73 | 99.65 | CCCCCC/C=C\COC(=O)CCCN(CCO)CCCN(CCCC(=O)OC/C=C\CCCCCC)CCCC(=O)OC/C=C\CCCCCC [Example 16, Di((Z)-non-2-en-1-yl)4,4'-((3-((2-hydroxyethyl)(4-(((Z)-non-2-en-1-yl)oxo)-4-oxobutyl)amino)propyl)azanediyl)dibutanoate] | 84.6 | 94.18
10 | 0.26 | 90.04 | – | CCC/C=C\COC(=O)CCCCCCCN(CCO)CCCN(CCCCCCCC(=O)OC/C=C\CCC)CCCCCCCC(=O)OC/C=C\CCC [Example 17, Di((Z)-hexyl-2-en-1-yl)8,8'-((3-((8-(((Z)-hexyl-2-en-1-yl)oxo)-8-oxooctyl)(2-hydroxyethyl)amino)propyl)azanediyl)dioctanoate] | 71.1 | 95.88
11 | 0.25 | 88.82 | – | CCCCCCCCCCCOC(=O)CCCCCCCN(CCCO)CCCN(CCCCCCCC(=O)OCCCCCCCCCCC)CCCCCCCC(=O)OCCCCCCCCCCC [Example 18, Diundecyl 8,8'-((3-((3-hydroxypropyl)(8-oxo-8-(undecyloxy)octyl)amino)propyl)azanediyl)dioctanoate] | 90.6 | 96.79
12 | 0.26 | 92.54 | – | CCCCCC/C=C\COC(=O)CCCCCCCN(CCCO)CCCN(CCCCCCCC(=O)OC/C=C\CCCCCC)CCCCCCCC(=O)OC/C=C\CCCCCC [Example 19, Di((Z)-non-2-en-1-yl)8,8'-((3-((3-hydroxypropyl)(8-(((Z)-non-2-en-1-yl)oxo)-8-oxooctyl)amino)propyl)azanediyl)dioctanoate] | 95.6 | 97.44
13 | 0.18 | 79.02 | 89.98 | CCCCCCCCCCCOC(=O)CCCCCCCN(CCCCO)CCCN(CCCCCCCC(=O)OCCCCCCCCCCC)CCCCCCCC(=O)OCCCCCCCCCCC [Example 20, Diundecyl 8,8'-((3-((4-hydroxybutyl)(8-oxo-8-(undecyloxy)octyl)amino)propyl)azanediyl)dioctanoate] | 83.8 | 93.27
14 | 0.11 | 78.46 | – | CCCCCCCCCCCCCCCOC(=O)CCCCCCCN(CCO)CCCN(CCCCCCCC(=O)OCCCCCCCCCCCCCCC)CCCCCCCC(=O)OCCCCCCCCCCCCCCC [Example 22, Dipentadecyl 8,8'-((3-((2-hydroxyethyl)(8-oxo-8-(pentadecyloxy)octyl)amino)propyl)azanediyl)dioctanoate] | 95.1 | 98.21
15 | 0.26 | 92.58 | – | CCCCCCCCCCCOC(=O)CCCCCCCCCCCN(CCO)CCCN(CCCCCCCCCCCC(=O)OCCCCCCCCCCC)CCCCCCCCCCCC(=O)OCCCCCCCCCCC [Example 23, Diundecyl 12,12'-((3-((2-hydroxyethyl)(12-oxo-12-(undecyloxy)dodecyl)amino)propyl)azanediyl)didodecanoate] | 87.5 | 92.1
